Experiments:
Adenosine receptor A2a [1] = biological target: T1, Adenosine receptor A2a (Homo sapiens, UniProt P29274)
Description: Agonist activity at adenosine A2A receptor in human neutrophils assessed as inhibition of fMLP-induced reactive oxygen species release by chemiluminescence assay

[2] = biological target: T2, Adenosine receptor A3 (Homo sapiens) (UniProt P0DMS8); assay: Partial agonist activity at human adenosine A3 receptor expressed in CHO cells assessed as I-AB-MECA-induced GTPPgammaS binding response; format: cell-based
T2 sequence (whole entry): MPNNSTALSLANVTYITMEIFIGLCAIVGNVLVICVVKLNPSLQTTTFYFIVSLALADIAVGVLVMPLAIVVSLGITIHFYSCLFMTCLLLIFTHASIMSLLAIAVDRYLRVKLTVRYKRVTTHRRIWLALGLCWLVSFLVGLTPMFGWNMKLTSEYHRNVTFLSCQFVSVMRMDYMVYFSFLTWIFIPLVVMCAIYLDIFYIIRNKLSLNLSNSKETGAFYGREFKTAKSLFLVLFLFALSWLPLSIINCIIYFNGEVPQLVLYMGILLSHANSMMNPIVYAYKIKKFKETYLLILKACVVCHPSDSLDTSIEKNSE

Adenosine receptor A1 = biological target: T3, Adenosine receptor A1 (Homo sapiens, UniProt P30542); assay: Agonist activity at human adenosine A1 receptor expressed in CHO cells by GTPPgammaS binding assay; format: cell-based
T3 sequence (P30542 whole entry): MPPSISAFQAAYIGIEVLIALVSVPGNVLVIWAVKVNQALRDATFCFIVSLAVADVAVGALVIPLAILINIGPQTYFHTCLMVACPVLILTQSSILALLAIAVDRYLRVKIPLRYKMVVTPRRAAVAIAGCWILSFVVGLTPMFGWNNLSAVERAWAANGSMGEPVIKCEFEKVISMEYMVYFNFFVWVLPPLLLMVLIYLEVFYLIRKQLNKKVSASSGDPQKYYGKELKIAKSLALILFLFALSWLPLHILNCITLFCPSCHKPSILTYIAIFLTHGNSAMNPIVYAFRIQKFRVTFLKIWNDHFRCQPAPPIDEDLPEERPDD

Adenosine receptor A3 = biological target: T4, Adenosine receptor A3 (Homo sapiens, UniProt P0DMS8); assay: Agonist activity at human adenosine A3 receptor expressed in CHO cells by GTPPgammaS binding assay; format: cell-based
T4 sequence (P0DMS8 whole entry): T2 sequence (whole entry)

Adenosine receptor A2a [3] = biological target: T1, Adenosine receptor A2a; assay: biochemical
PBMC [4] = assay: Antiinflammatory activity in rat PBMC assessed as inhibition of LPS-induced TNFalpha production after 20 hrs by ELISA
PBMC [5] = assay: Antiinflammatory activity in human PBMC assessed as inhibition of LPS-induced TNFalpha production after 20 hrs by ELISA; format: functional, cell-based
[6] = biological target: T2, Adenosine receptor A3 (Homo sapiens); assay: Antagonist activity at human adenosine A3 receptor expressed in CHO cells assessed as I-AB-MECA-induced GTPPgammaS binding response; format: functional, cell-based; set-up: concentration or dose not given beside the values
Adenosine receptor A2b = biological target: T5, Adenosine receptor A2b (Homo sapiens, UniProt P29275)
T5 sequence (P29275 whole entry): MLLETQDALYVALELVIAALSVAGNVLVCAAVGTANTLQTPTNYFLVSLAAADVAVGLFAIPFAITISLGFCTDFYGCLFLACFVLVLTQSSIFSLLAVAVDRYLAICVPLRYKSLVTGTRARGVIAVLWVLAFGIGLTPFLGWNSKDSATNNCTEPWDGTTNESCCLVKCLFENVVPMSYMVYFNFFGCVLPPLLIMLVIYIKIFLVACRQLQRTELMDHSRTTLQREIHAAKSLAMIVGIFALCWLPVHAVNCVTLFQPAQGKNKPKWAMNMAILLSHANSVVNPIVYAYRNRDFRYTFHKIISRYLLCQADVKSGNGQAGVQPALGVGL
Description: Agonist activity at human adenosine A2B receptor expressed in CHO cells assessed as effect on cAMP production by luciferase reporter gene assay

T1 sequence (P29274 whole entry): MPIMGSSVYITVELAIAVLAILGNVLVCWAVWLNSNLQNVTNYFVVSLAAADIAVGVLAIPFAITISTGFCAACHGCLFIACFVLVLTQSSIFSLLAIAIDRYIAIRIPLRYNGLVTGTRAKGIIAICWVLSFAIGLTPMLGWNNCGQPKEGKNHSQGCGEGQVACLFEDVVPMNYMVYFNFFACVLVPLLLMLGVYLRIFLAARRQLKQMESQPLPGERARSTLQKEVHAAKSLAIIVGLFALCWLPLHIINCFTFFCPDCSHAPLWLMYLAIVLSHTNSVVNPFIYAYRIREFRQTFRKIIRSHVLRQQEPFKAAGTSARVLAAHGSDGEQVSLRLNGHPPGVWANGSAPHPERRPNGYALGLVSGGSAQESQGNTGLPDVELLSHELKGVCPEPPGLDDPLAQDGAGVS

SMILES | IC50 (Adenosine receptor A2a [1]) [nM] | Activity [2] [%] | EC50 (Adenosine receptor A1) [nM] | EC50 (Adenosine receptor A3) [nM] | Ki (Adenosine receptor A2a [3]) [nM] | IC50 (PBMC [4]) [nM] | IC50 (PBMC [5]) [nM] | Activity [6] [%] | EC50 (Adenosine receptor A2b) [nM]
CC(C)n1cnc(CCNc2nc(NCC(c3ccccc3)c3ccccc3)c3ncn([C@@H]4C[C@H](NC(=O)C5CCC5)[C@@H](O)[C@H]4O)c3n2)c1 | 40 | 48 | > 10000 | 480 | 7.9 |  |  |  | 
CCNC(=O)[C@H]1O[C@@H](n2cnc3c(N)ncnc32)[C@H](O)[C@@H]1O [NECA] |  |  |  |  |  | 187 | 40 |  | 
CCC(CC)CNc1nc(NCCc2cn(CC)cn2)nc2c1ncn2[C@@H]1C[C@H](n2cc(CO)cn2)[C@@H](O)[C@H]1O | 5.3 |  | 4100 | 789 | 5.4 | 3590 | 21 | > 50 | > 10000
CCC(=O)N[C@H]1C[C@@H](n2cnc3c(NCC(c4ccccc4)c4ccccc4)nc(NCCc4cn(C)cn4)nc32)[C@H](O)[C@@H]1O | 4.7 |  | > 10000 | 42 | 4.6 |  |  |  | 
CC(C)n1cnc(CCNc2nc(NCC(c3ccccc3)c3ccccc3)c3ncn([C@@H]4C[C@H](NC(=O)C(C)(C)C)[C@@H](O)[C@H]4O)c3n2)c1 | 542 |  |  |  | 382 |  |  |  | 
CCc1cnn([C@H]2C[C@@H](n3cnc4c(NCC(c5ccccc5)c5ccccc5)nc(NCCc5cn(CC)cn5)nc43)[C@H](O)[C@@H]2O)c1 |  |  |  |  | 146 |  |  |  | 
CCc1cnn([C@H]2C[C@@H](n3cnc4c(N)nc(N[C@H](CO)Cc5ccccc5)nc43)[C@H](O)[C@@H]2O)c1 | 62 |  | > 10000 | 776 | 182 |  |  | > 50 | > 10000
CC(C)C(=O)N[C@H]1C[C@@H](n2cnc3c(NCC(c4ccccc4)c4ccccc4)nc(NCCc4cn(C(C)C)cn4)nc32)[C@H](O)[C@@H]1O | 67 |  |  |  | 27 |  |  |  | 
CC(C)n1cnc(CCNc2nc(NCC(c3ccccc3)c3ccccc3)c3ncn([C@@H]4C[C@H](NC(=O)C5CC5)[C@@H](O)[C@H]4O)c3n2)c1 | 60 |  | > 10000 | 357 | 16 |  |  | > 50 | 
CCNC(=O)[C@H]1O[C@@H](n2cnc3c(N)nc(NCCc4ccc(CCC(=O)O)cc4)nc32)[C@H](O)[C@@H]1O [CGS-21680] |  |  |  |  |  | 83 | 58 |  | 
CCCC(=O)N[C@H]1C[C@@H](n2cnc3c(NCC(c4ccccc4)c4ccccc4)nc(NCCc4cn(C(C)C)cn4)nc32)[C@H](O)[C@@H]1O | 160 |  |  |  | 39 |  |  |  | 
CCn1nnc([C@H]2O[C@@H](n3cnc4c(N)nc(N[C@H](CO)Cc5ccccc5)nc43)[C@H](O)[C@@H]2O)n1 [GW-328267] | 0.4 |  | 882 |  |  | 2.9 | 1.3 | > 50 | 
CCC(=O)N[C@H]1C[C@@H](n2cnc3c(NCC(c4ccccc4)c4ccccc4)nc(NCCc4cn(CC)cn4)nc32)[C@H](O)[C@@H]1O | 5 |  |  | 44 | 5.2 |  |  |  | 
CCC(=O)N[C@H]1C[C@@H](n2cnc3c(NC(CC)CC)nc(NCCc4cn(CC)cn4)nc32)[C@H](O)[C@@H]1O | 2.7 |  | > 10000 | 1640 | 5.4 | 255 | 4.7 |  | > 10000
CCCCC#Cc1nc(N)c2ncn([C@@H]3C[C@H](NC(=O)CC)[C@@H](O)[C@H]3O)c2n1 | 12 |  | > 10000 | 105 | 18 |  |  |  | > 10000
Cc1cnn([C@H]2C[C@@H](n3cnc4c(N)nc(N[C@H](CO)Cc5ccccc5)nc43)[C@H](O)[C@@H]2O)c1 | 56 |  | > 10000 | 449 | 229 |  |  | > 50 | > 10000
CCC(=O)N[C@H]1C[C@@H](n2cnc3c(NCC(c4ccccc4)c4ccccc4)nc(NCCc4c[nH]cn4)nc32)[C@H](O)[C@@H]1O | 5.9 |  | > 10000 | 139 | 5.2 |  |  |  | > 10000
CCC(=O)N[C@H]1C[C@@H](n2cnc3c(NCC(c4ccccc4)c4ccccc4)nc(NCCc4cn(CC(=O)O)cn4)nc32)[C@H](O)[C@@H]1O |  |  |  |  | 97 |  |  |  | 
Nc1nc(N[C@H](CO)Cc2ccccc2)nc2c1ncn2[C@@H]1C[C@H](n2cc(-c3ccccc3)cn2)[C@@H](O)[C@H]1O |  |  |  |  | > 10000 |  |  |  | 
Nc1nc(N[C@H](CO)Cc2ccccc2)nc2c1ncn2[C@@H]1C[C@H](n2ncc3ccccc32)[C@@H](O)[C@H]1O |  |  |  |  | 5410 |  |  |  | 
Nc1nc(N[C@H](CO)Cc2ccccc2)nc2c1ncn2[C@@H]1C[C@H](n2cccn2)[C@@H](O)[C@H]1O |  |  |  |  | 702 |  |  |  | 
CC(C)n1cnc(CCNc2nc(NCC(c3ccccc3)c3ccccc3)c3ncn([C@@H]4C[C@H](NC(=O)Cc5ccccc5)[C@@H](O)[C@H]4O)c3n2)c1 |  |  |  |  | 1670 |  |  |  | 
CCC(=O)N[C@H]1C[C@@H](n2cnc3c(NC(CC)CC)nc(NCCc4cn(C(C)C)cn4)nc32)[C@H](O)[C@@H]1O | 8.3 |  | > 10000 | 2520 | 8 | 458 | 5.9 |  | 
Nc1nc(N[C@H](CO)Cc2ccccc2)nc2c1ncn2[C@@H]1C[C@H](n2ccccc2=O)[C@@H](O)[C@H]1O |  |  |  |  | 5490 |  |  |  | 
CC(C)n1cnc(CCNc2nc(NCC(c3ccccc3)c3ccccc3)c3ncn([C@@H]4C[C@H](NC(=O)CCc5ccccc5)[C@@H](O)[C@H]4O)c3n2)c1 |  |  |  |  | 5470 |  |  |  | 

Source: ChEMBL document CHEMBL1158518, “Synthesis and evaluation of two series of 4'-aza-carbocyclic nucleosides as adenosine A2A receptor agonists” (Bioorg Med Chem Lett, 2010)
